Measurements: EP0845210A1, “New herbicidal compositions” (RHONE-POULENC AGRICULTURE LTD., priority 1994, dated 1996)

Assays:
Test in all cases: Procedure D: pre-emergence field trial (Volga, Brookings), visual assessment about 26 days after treatment
Type in all cases: in vivo
[1] = tested on: Helianthus annuus; conditions: A 37.5 g/ha alone
Experimental: (§1) The following experiments were carried out pre-emergence of the weed species. Compound A, formulated as a wettable dispersible granule as described in Example 1 herebelow (750g per kilogram) and each acetochlor (used as the commercially available formulation "Harness" (trade mark), an emulsifiable concentrate containing 960g of acetochlor per kilogram, and which also contains the safening agent flurazole, metolachlor (used as the commercially available formulation "Duelor" (trade mark), an emulsifiable concentrate emulsifiable concentrate containing 960g of metolachlor per kilogram), alachlor (used as the commercially available formulation "Lasso" (trade mark), an emulsifiable concentrate containing 480g of alachlor per kilogram) and dimethenamid (used as the commercially available formulation "Frontiere" (trade mark), a flowable containing 900g/l active ingerident) were dissolved in water and sprayed at a volume rate of 187 litres/hectare on various test plots (10 square meters in area) either alone or in mixtures. The soil was a clay-loam, with a pH of 7, the experiments being conducted in June in Volga, Brookings, U.S.A. The various weed and crop species were drill sown and the various compositions were applied on the same day after drilling. Three replicates were performed and the efficacy of the various mixtures were determined by visual assessment of the percentage phytotoxicity in comparison with an untreated control. Assessment was made about 26 days after treatment. In the Tables which follow the dose is expressed in grammes per hectare and the figures in brackets represent the expected results according to the Colby formula.

[2] = tested on: Abutilon theophrasti; conditions: A 37.5 g/ha alone
Experimental: as §1

[3] = tested on: Panicum miliaceum; conditions: A 375 g/ha alone
Experimental: as §1

Compound: CS(=O)(=O)c1cc(C(F)(F)F)ccc1C(=O)c1cnoc1C1CC1 [Compound A, 5-cyclopropyl-4-(2-methylsulphonyl-4-trifluoromethyl)benzoylisoxazole]
- percentage phytotoxicity [1]: 18%
- percentage phytotoxicity [2]: 93%
- percentage phytotoxicity [3]: 65%
